Results on four compounds are retold here after paper PMC6347603, “N^+-C-H···O Hydrogen bonds in protein-ligand complexes” (Scientific Reports, 2019).

Each structure is given as a SMILES string.

One assay addresses T1, G9a-like protein (GLP) (Homo sapiens, UniProt Q9H9B1).
T1 construct: purchased BPS Bioscience, Inc. 53007
T1 sequence (Q9H9B1 1-1298): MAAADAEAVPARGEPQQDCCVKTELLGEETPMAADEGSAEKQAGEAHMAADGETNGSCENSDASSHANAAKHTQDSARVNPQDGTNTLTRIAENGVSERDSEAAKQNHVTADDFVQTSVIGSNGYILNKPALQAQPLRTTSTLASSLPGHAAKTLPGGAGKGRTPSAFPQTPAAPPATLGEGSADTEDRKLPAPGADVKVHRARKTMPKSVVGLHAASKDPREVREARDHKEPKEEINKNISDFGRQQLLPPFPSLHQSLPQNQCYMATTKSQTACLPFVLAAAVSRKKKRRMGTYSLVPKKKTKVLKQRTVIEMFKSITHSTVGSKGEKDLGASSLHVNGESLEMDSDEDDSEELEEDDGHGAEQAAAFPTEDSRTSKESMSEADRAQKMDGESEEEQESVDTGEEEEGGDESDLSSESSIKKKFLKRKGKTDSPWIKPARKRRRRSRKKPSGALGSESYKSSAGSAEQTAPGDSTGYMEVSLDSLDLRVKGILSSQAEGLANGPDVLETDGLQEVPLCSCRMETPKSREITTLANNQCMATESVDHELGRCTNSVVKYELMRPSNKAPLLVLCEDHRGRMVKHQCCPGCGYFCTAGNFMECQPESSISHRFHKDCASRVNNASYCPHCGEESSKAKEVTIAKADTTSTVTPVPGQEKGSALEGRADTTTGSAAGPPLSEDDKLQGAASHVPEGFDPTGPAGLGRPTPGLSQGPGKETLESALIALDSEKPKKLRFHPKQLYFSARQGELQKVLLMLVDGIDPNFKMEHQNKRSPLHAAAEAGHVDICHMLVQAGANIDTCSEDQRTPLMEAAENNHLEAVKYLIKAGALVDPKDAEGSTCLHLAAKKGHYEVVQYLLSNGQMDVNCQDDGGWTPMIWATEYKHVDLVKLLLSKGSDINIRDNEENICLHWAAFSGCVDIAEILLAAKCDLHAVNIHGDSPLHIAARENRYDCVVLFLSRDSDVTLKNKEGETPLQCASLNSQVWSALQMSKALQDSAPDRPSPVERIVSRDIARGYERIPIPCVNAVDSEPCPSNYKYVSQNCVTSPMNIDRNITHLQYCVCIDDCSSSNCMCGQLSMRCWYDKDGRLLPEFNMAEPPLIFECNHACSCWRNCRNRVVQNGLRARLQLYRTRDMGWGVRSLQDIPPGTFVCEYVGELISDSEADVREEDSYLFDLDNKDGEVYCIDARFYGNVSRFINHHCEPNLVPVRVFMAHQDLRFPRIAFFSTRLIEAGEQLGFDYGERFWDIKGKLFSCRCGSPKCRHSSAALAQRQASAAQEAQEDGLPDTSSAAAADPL
As to the kind of experiment: GLP activity assay (GLP Chemiluminescent Assay Kit). The following applies: for IC50: 2 μM SAM, 40 ng GLP, 120 min, room temperature, mean values of at least three experiments, read-out: In vitro GLP-inhibitory activity IC50. The format is biochemical. On the procedure:
The GLP activity assay was carried out using a GLP Chemiluminescent Assay Kit (Catalog #53007, BPS Bioscience, Inc.). Microwells were rehydrated by adding 200 μL of tris buffered saline with Tween 20 (TBS-T: 1x TBS, pH = 8.0, containing 0.05% Tween-20) to every well, followed by incubation at room temperature for 45 minutes. After removing TBS-T, the inhibitors were incubated in the presence of 2 μM SAM and 40 ng of GLP in the supplied buffer on the microwells of (120 min, room temperature, total volume: 50 μL). After the enzymatic reaction, every well was washed three times with TBS-T (100 μL) and blocked for 10 min with blocking buffer. Then, 100 μL of primary anti-body solution (1:400 dilution) were added to the microwells, followed by incubation (2 h). The wells were probed with the primary antibody, washed three times with TBS-T (100 μL), incubated (2 h, room temperature) with sheep secondary anti-body (1:1000 diluted), and again washed three times with TBS-T (100 μL). The chemiluminescence of the wells, to which detection reagents were added, was measured on a chemiluminescence reader (ARVO X3 Multilabel Plate Reader), and the values of % inhibition were calculated from the chemiluminescence readings of inhibited wells relative to those of control wells.

The target of the next assay is T2, GLP recombinant protein (Homo sapiens, UniProt Q9H9B1).
T2 construct: purchased Active Motif, Inc. 31920
T2 sequence (Q9H9B1 1-1298): T1 sequence (Q9H9B1 1-1298)
As to the kind of experiment: Isothermal titration calorimetry (ITC) of GLP inhibitors binding to GLP. The following applies: 25 °C, 20 mM Tris pH 8.0, 150 mM NaCl, 2% DMSO, 50 μM AdoMet; for Kd: 10 μM GLP, 100 μM inhibitor, one-site binding model, read-out: dissociation constant KD (ITC); for −TΔS (ITC): calculated from ΔG = ΔH − TΔS. As for the experimental part: A GLP recombinant protein solution (Catalog #31920, Active Motif, Inc.) was concentrated by ultrafiltration and the buffer was replaced with test buffer (20 mM Tris pH 8.0, 150 mM NaCl, 2% DMSO and 50 μM AdoMet). ITC measurements of GLP inhibitors binding to the GLP were recorded at 25 °C using a MicroCal PEAQ-ITC microcalorimeter (Malvern Panalytical) in the test buffer. The titrations were performed using 10 μM GLP solution in the sample cell and 100 μM inhibitor solution in the syringe. A typical experiment consisted of 19 injections under the following parameters: one injection of 0.4 μL followed by 18 injections of 2.0 μL; 150 s spacing between injections; 750 rpm stirring speed; and reference power set to 5 μcal s^−1. The heat of dilution of the ligand into the buffer measured independently was essentially similar to the heat signal obtained at the end of the titration; so the signal of the last injection was used as the background heat signal. The experimental data were analyzed using the MicroCal PEAQ-ITC Analysis software (Malvern Panalytical), and fitted using the one-site binding model. Values of ΔG, KD, and −TΔS were calculated using the thermodynamic relationships, ΔG = −RT lnKa, KD = 1/Ka, and ΔG = ΔH − TΔS.
Figure S20. Determination of the disassociation constant and thermodynamic parameters of 14a–14c by isothermal titration calorimetry (ITC). (A–C) The binding of (A) 14a, (B) 14b and (C) 14c to GLP are measured by ITC. The titrations were conducted in buffer containing 20 mM Tris pH 8.0, 150 mM NaCl, 2% DMSO and 50 μM AdoMet. The sample chamber and syringe were filled with 10 μM GLP and 100 μM inhibitor, respectively. (D) Summary of disassociation constant and thermodynamic parameter profiles of 14a–14c.

As usually defined, the IC50 is the point on the concentration scale where inhibition reaches its midpoint. As a reminder, the Kd is a measure of binding affinity in units of concentration. Turning to `COc1cc2nc(NCCCN(C)C)nc(NC3CCN(Cc4ccccc4)CC3)c2cc1OC` [Compound 14a], the IC50 on G9a-like protein (GLP) worked out at 0.156 µM. On GLP recombinant protein, the “ΔH (ITC)” value is -10.7 kcal/mol, the dissociation constant (Kd) worked out at 0.171 µM and the “−TΔS (ITC)” value was 1.42 kcal/mol.

On to `CNCCCNc1nc(NC2CCN(Cc3ccccc3)CC2)c2cc(OC)c(OC)cc2n1` [Compound 14b, N^4-(1-Benzylpiperidin-4-yl)-6,7-dimethoxy-N^2-[3-(methylamino)propyl]quinazoline-2,4-diamine], for which the IC50 at G9a-like protein (GLP) was determined as 0.664 µM. Further, at GLP recombinant protein, the “ΔH (ITC)” value was -8.58 kcal/mol, the Kd worked out at 0.617 µM and the “−TΔS (ITC)” value is recorded as 0.10 kcal/mol.

`COc1cc2nc(NCCCN)nc(NC3CCN(Cc4ccccc4)CC3)c2cc1OC` [Compound 14c]: the IC50 at G9a-like protein (GLP) came to 1.45 µM. For the same compound, on GLP recombinant protein, the “ΔH (ITC)” value is -7.04 kcal/mol, the dissociation constant Kd is 0.944 µM and the “−TΔS (ITC)” value was -1.19 kcal/mol.

Take `COc1cc2nc(NCCCC(C)C)nc(NC3CCN(Cc4ccccc4)CC3)c2cc1OC` [Compound 14d]: the “GLP inhibition (result in words)” value at G9a-like protein (GLP) (up to 3 μM) is given as “did not show any GLP inhibition”.
